Drawing on patent publication US8309685B2 (Celgene Avilomics Research, Inc., priority 2007, dated 2012), this text covers IC50 and IC90 for 16 compounds.

The target of assay [1] is T1, wild type HCV NS3/4A 1b protease enzyme (Hepatitis C virus genotype 1b, UniProt P26663).
T1 construct: 10× stocks of NS3/4A protease enzyme from Bioenza (Mountain View, Calif.); purchased Bioenza (Mountain View, Calif.)
Put plainly: biochemical. The assay is classed as biochemical. Here is the method:
(§1) HCV Protease FRET Assay for Wild Type and Mutated NS3/4A 1b Enzymes (IC50)
(§2) Protease reactions were started with the addition of 45 μL of the FRET substrate and monitored for 120 minutes at λex487/λem514 through Quad^4 monochromoters in a Synergy^4 plate reader from BioTek (Winooski, Vt.). At the conclusion of each assay, progress curves from each well were examined for linear reaction kinetics and fit statistics (R^2, absolute sum of squares).
(§3) The compound numbers correspond to the compound numbers in Table 3.

Assay [2] deals with T2, D168A mutant of the HCV NS3/4A 1b protease enzyme (Hepatitis C virus genotype 1b, UniProt P26663, D1194A).
T2 construct: 10× stocks of NS3/4A protease enzyme from Bioenza (Mountain View, Calif.); purchased Bioenza (Mountain View, Calif.)
Put plainly: HCV Protease FRET Assay (IC50), D168A mutant. The assay is classed as biochemical. The protocol: as §1, §2, §3

Assay [3] concerns the target T3, R155K mutant of the HCV NS3/4A 1b protease enzyme (Hepatitis C virus genotype 1b, UniProt P26663, R1181K).
T3 construct: 10× stocks of NS3/4A protease enzyme from Bioenza (Mountain View, Calif.); purchased Bioenza (Mountain View, Calif.)
Nature of the assay: HCV Protease FRET Assay (IC50_APP), R155K mutant. The assay is classed as biochemical. The following applies: apparent IC50, R155K mutant; read-out: IC50_APP, HCV R155K. Here is the method: HCV Protease FRET Assay for WT and Mutated NS3/4A 1b Enzymes (IC50—APP).
The following protocol was used to generate “apparent” IC50 (IC50—APP) values as depicted in Table 6, below. […] 5 μL of each enzyme were added to Corning (#3575) 384-well, black, microtiter plates (Corning, N.Y.) after spotting a 0.5 μL volume of 50% DMSO and serially diluted compounds prepared in 50% DMSO. Protease reactions were immediately started after enzyme addition with the addition of 45 μL of the FRET substrate and monitored for 60-90 minutes at λex485/λem520 in a Synergy^4 plate reader from BioTek (Winooski, Vt.). At the conclusion of each assay, progress curves from each well were examined for linear reaction kinetics and fit statistics (R^2, 95% confidence intervals, absolute sum of squares).
The compound numbers correspond to the compound numbers in Table 3. […] ;

Assay [4] concerns the target T2, D168A mutant of the HCV NS3/4A 1b protease enzyme. Put plainly: HCV Protease FRET Assay (IC50_APP), D168A mutant. The assay is classed as biochemical. To be noted: apparent IC50, D168A mutant; read-out: IC50_APP, HCV D168A.
Assay [5] has as its target T1, wild type HCV NS3/4A 1b protease enzyme. Nature of the assay: HCV Protease FRET Assay (IC50_APP), wild type. The assay is classed as biochemical.
Assay [6] deals with HCV RNA replicon in cell line ET (luc-ubi-neo/ET), human Huh7 hepatoma. Put plainly: Method A: HCV RNA replicon antiviral assay (luciferase, ET cell line). The assay is classed as cell-based, Hepatitis C virus. The following applies: Hepatitis C virus, Huh-7, assay described in Example 22. An outline of the steps:
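ET replicon cells (Huh7 carrying luciferase-reporter HCV replicon) plated at 5×10^3 cells/well and exposed 72 hr to six 3-fold drug concentrations in DMEM/5% FBS. Replicon luciferase gave EC50/EC90; CytoTox-1 cell counts gave IC50 (viability); […]. Interferon alpha-2b served as positive control.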

Setting [7] is: read-out: Inhibition, WT, WT enzyme, FRET assay.
Where [8] appears, read: read-out: Inhibition, HCV D168A, D168A enzyme, FRET assay.
Where [9] appears, read: read-out: IC50_APP, WT, apparent IC50, wild type NS3/4A 1b.

On to `C=CC(=O)N(C)CC(=O)N1C[C@H](Oc2cc(-c3ccccc3)nc3cc(OC)ccc23)C[C@H]1C(=O)N[C@]1(C(=O)NS(=O)(=O)C2CC2)C[C@H]1C=C` [Compound I-37, (2S,4R)—N-((1R,2S)-1-(cyclopropylsulfonylcarbamoyl)-2-vinylcyclopropyl)-4-(7-methoxy-2-phenylquinolin-4-yloxy)-1-(2-(N-methylacrylamido)acetyl)pyrrolidine-2-carboxamide], for which the IC50 in assay [1] (setting [7]) is 10 to 100 nM; in assay [2] (setting [8]), 1000 to 10000 nM.
Taken in the same sequence, the figures for `C=C[C@@H]1C[C@]1(NC(=O)[C@@H]1C[C@@H](Oc2cc(-c3ccccc3)nc3cc(OC)ccc23)CN1C(=O)CNC(=O)OC(C)(C)C)C(=O)NS(=O)(=O)C1CC1` [Compound I-38, tert-butyl-2-((2S,4R)-2-((1R,2S)-1-(cyclopropylsulfonylcarbamoyl)-2-vinylcyclopropylcarbamoyl)-4-(7-methoxy-2-phenylquinolin-4-yloxy)pyrrolidin-1-yl)-2-oxoethylcarbamate] were below 10 nM and 100 to 1000 nM.
As for `C=CC(=O)OC(C)(C)[C@H](NC(=O)OC(C)(C)C)C(=O)N1CC(Oc2cc(-c3ccccc3)nc3cc(OC)ccc23)C[C@H]1C(=O)N[C@]1(C(=O)NS(=O)(=O)C2CC2)C[C@H]1C=C` (stereo partly shown) [Compound I-40], the IC50 was 10 to 100 nM in assay [1] (setting [7]) and below 10 nM in assay [2] (setting [8]).
Taken in the same sequence, the figures for `C=C[C@@H]1C[C@]1(NC(=O)[C@@H]1C[C@@H](Oc2cc(-c3ccccc3)nc3cc(OC)ccc23)CN1C(=O)CNC(=O)C#CC)C(=O)NS(=O)(=O)c1ccccc1` [Compound I-43, (2S,4R)-1-(2-but-2-ynamidoacetyl)-4-(7-methoxy-2-phenylquinolin-4-yloxy)-N-((1R,2S)-1-(phenylsulfonylcarbamoyl)-2-vinylcyclopropyl)pyrrolidine-2-carboxamide] were 100 to 1000 nM and 1000 to 10000 nM.
For `C=C[C@@H]1C[C@]1(NC(=O)[C@@H]1C[C@@H](Oc2cc(-c3ccccc3)nc3cc(OC)ccc23)CN1C(=O)CNC(=O)C(=C)C)C(=O)NS(=O)(=O)c1ccccc1` [Compound I-44, (2S,4R)-1-(2-methacrylamidoacetyl)-4-(7-methoxy-2-phenylquinolin-4-yloxy)-N-((1R,2S)-1-(phenylsulfonylcarbamoyl)-2-vinylcyclopropyl)pyrrolidine-2-carboxamide], in that order: 10 to 100 nM and 1000 to 10000 nM.
Taken in the same sequence, the figures for `C=CC(=O)N1C[C@H](Oc2cc(-c3ccccc3)nc3cc(OC)ccc23)C[C@H]1C(=O)N[C@]1(C(=O)NS(=O)(=O)C2CC2)C[C@H]1C=C` [Compound I-49, (2S,4R)-1-acryloyl-N-((1R,2S)-1-(cyclopropylsulfonylcarbamoyl)-2-vinylcyclopropyl)-4-(7-methoxy-2-phenylquinolin-4-yloxy)pyrrolidine-2-carboxamide] were 10 to 100 nM and 100 to 1000 nM.
Regarding `C=CC(=O)N(C)C[C@@H]1NC(=O)OCCC/C=C/c2ccc3ccnc(c3c2)O[C@@H]2C[C@@H](C(=O)N[C@]3(C(=O)NS(=O)(=O)C4CC4)C[C@H]3C=C)N(C2)C1=O` [Compound I-83], the IC50 in assay [3] was in the range of 1000 to 10000 nM; in assay [4], 1000 to 10000 nM; in assay [5], 10 to 100 nM.
What is called IC90 is the concentration at which the effect reaches the 90% level. As for `C=CC(=O)NC[C@H](NC(=O)OC1CCCC1)C(=O)N1C[C@H](Oc2nccc3ccc(-c4cccs4)cc23)C[C@H]1C(=O)N[C@]1(C(=O)NS(=O)(=O)C2CC2)C[C@H]1C=C` [Compound I-88, Cyclopentyl-(S)-3-acrylamido-1-((2S,4R)-2-((1R,2S)-1-(cyclopropylsulfonylcarbamoyl)-2-vinylcyclopropylcarbamoyl)-4-(7-(thiophen-2-yl)isoquinolin-1-yloxy)pyrrolidin-1-yl)-1-oxopropan-2-ylcarbamate], the IC90 in assay [6] (IC90) fell in the range of 10 to 100 nM. Moreover, the IC50 is below 10 nM in assay [6] (read-out: Replicon (IC50)), 1000 to 10000 nM in assay [3], 100 to 1000 nM in assay [4] and below 10 nM in assay [5].
Consider `C=CC(=O)NC[C@H](NC(=O)CCCC[C@H]1SC[C@H]2NC(=O)N[C@H]21)C(=O)N1C[C@H](Oc2nccc3cc(OC)ccc23)C[C@H]1C(=O)N[C@]1(C(=O)NS(=O)(=O)C2CC2)C[C@H]1C=C` [Compound I-103, 1-{3-Acryloylamino-2-[5-(2-oxo-hexahydro-thieno[3,4-d]imidazol-6-yl)-pentanoylamino]-propionyl}-4-(6-methoxy-isoquinolin-1-yloxy)-pyrrolidine-2-carboxylic acid (1-cyclopropanesulfonylaminocarbonyl-2-vinyl-cyclopropyl)-amide], for which the IC50 in assay [3] lay within 100 to 1000 nM; in assay [4], 10 to 100 nM; in assay [5] (setting [9]), 10 to 100 nM.
As to `C=CC(=O)NC[C@H](NC(=O)CCCC(=O)NCCCOCCOCCOCCCNC(=O)CCCC[C@@H]1SC[C@@H]2NC(=O)N[C@@H]21)C(=O)N1C[C@H](Oc2nccc3cc(OC)ccc23)C[C@H]1C(=O)N[C@]1(C(=O)NS(=O)(=O)C2CC2)C[C@H]1C=C` [Compound I-104], the IC50 is 10 to 100 nM in assay [3], 10 to 100 nM in assay [4] and below 10 nM in assay [5] (setting [9]).
For `C=C[C@@H]1C[C@]1(NC(=O)[C@@H]1C[C@@H](Oc2nccc3cc(OC)ccc23)CN1C(=O)[C@H](CC(=O)/C(C)=C/C)NC(=O)OC(C)(C)C)C(=O)NS(=O)(=O)C1CC1` [Compound I-133], the IC50 in assay [3] is 10 to 100 nM; in assay [4], 100 to 1000 nM; in assay [5] (setting [9]) it was below 10 nM.
Turning to `C=C[C@@H]1C[C@]1(NC(=O)[C@@H]1C[C@@H](Oc2nccc3cc(OC)ccc23)CN1C(=O)[C@@H](NC(=O)OC(C)(C)C)C(C)(C)C(=O)C=C(C)C)C(=O)NS(=O)(=O)C1CC1` [Compound I-134], the IC50 in assay [3] is 10 to 100 nM; in assay [4], 100 to 1000 nM; in assay [5] (setting [9]) it was below 10 nM.
For `C=C[C@@H]1C[C@]1(NC(=O)[C@@H]1C[C@@H](Oc2nccc3cc(OC)ccc23)CN1C(=O)[C@H](CCC(=O)/C=C/c1ccccc1)NC(=O)OC(C)(C)C)C(=O)NS(=O)(=O)C1CC1` [Compound I-137], in that order: 1000 to 10000 nM, 1000 to 10000 nM and 10 to 100 nM.
In the case of `[2H]C([2H])([2H])C(=CC(=O)CC[C@H](NC(=O)OC(C)(C)C)C(=O)N1C[C@H](Oc2nccc3cc(OC)ccc23)C[C@H]1C(=O)N[C@]1(C(=O)NS(=O)(=O)C2CC2)C[C@H]1C=C)C([2H])([2H])[2H]` [Compound I-142], the IC50 is 10 to 100 nM in assay [3], 100 to 1000 nM in assay [4] and below 10 nM in assay [5] (setting [9]).
Turning to `C=C[C@@H]1C[C@]1(NC(=O)[C@@H]1C[C@@H](Oc2nccc3cc(OC)ccc23)CN1C(=O)[C@H](CCC(=O)/C=C/C(C)(C)C)NC(=O)OC(C)(C)C)C(=O)NS(=O)(=O)C1CC1` [Compound I-143], the IC50 in assay [3] is 100 to 1000 nM; in assay [4], 1000 to 10000 nM; in assay [5] (setting [9]) it was below 10 nM.
For the compound `C=C[C@@H]1C[C@]1(NC(=O)[C@@H]1C[C@@H](Oc2cc(-c3ccccc3)nc3cc(OC)ccc23)CN1C(=O)CNC(=O)CC)C(=O)NS(=O)(=O)c1ccccc1` [I^R-27, (2S,4R)-4-(7-methoxy-2-phenylquinolin-4-yloxy)-N-((1R,2S)-1-(phenylsulfonylcarbamoyl)-2-vinylcyclopropyl)-1-(2-propionamidoacetyl)pyrrolidine-2-carboxamide], the figures for the IC50 in assay [1] and in assay [2] were 100 to 1000 nM and 1000 to 10000 nM, respectively.
